Laboratory results from PubChem BioAssay (NCI).
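Dose response: 5 concentrations. Exposure: 48 h. Format: 96-well plates. Endpoint: linear interpolation; highest concentration if not reached. GI50 marks 50% less growth. TGI: total growth inhibition.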

How the values were obtained:
Assay in all cases: NCI anticancer screen, dose series, 48 h
786-0 renal = system: 786-0 renal
A498 renal = system: A498 renal
A549 NSCLC = system: A549 NSCLC
ACHN renal = system: ACHN renal
BT-549 breast = system: BT-549 breast
CAKI-1 renal = system: CAKI-1 renal
CCRF-CEM leukemia = system: CCRF-CEM leukemia
COLO 205 colon = system: COLO 205 colon
DU-145 prostate = system: DU-145 prostate
EKVX NSCLC = system: EKVX NSCLC
HCC-2998 colon = system: HCC-2998 colon
HCT-116 colon = system: HCT-116 colon
HCT-15 colon = system: HCT-15 colon
HL-60(TB) leukemia = system: HL-60(TB) leukemia
HOP-62 NSCLC = system: HOP-62 NSCLC
HOP-92 NSCLC = system: HOP-92 NSCLC
HS 578T breast = system: HS 578T breast
HT29 colon = system: HT29 colon
IGROV1 ovarian = system: IGROV1 ovarian
K-562 leukemia = system: K-562 leukemia
KM12 colon = system: KM12 colon
LOX IMVI melanoma = system: LOX IMVI melanoma
M14 melanoma = system: M14 melanoma
MALME-3M melanoma = system: MALME-3M melanoma
MCF7 breast = system: MCF7 breast
MDA-MB-231 breast = system: MDA-MB-231 breast
MDA-MB-435 = system: MDA-MB-435
MOLT-4 leukemia = system: MOLT-4 leukemia
NCI-H226 lung = system: NCI-H226 lung
NCI-H23 lung = system: NCI-H23 lung
NCI-H460 lung = system: NCI-H460 lung
NCI-H522 lung = system: NCI-H522 lung
NCI/ADR-RES ovarian = system: NCI/ADR-RES ovarian
OVCAR-3 ovarian = system: OVCAR-3 ovarian
OVCAR-4 ovarian = system: OVCAR-4 ovarian
OVCAR-5 ovarian = system: OVCAR-5 ovarian
OVCAR-8 ovarian = system: OVCAR-8 ovarian
PC-3 prostate = system: PC-3 prostate
RPMI-8226 leukemia = system: RPMI-8226 leukemia
RXF 393 renal = system: RXF 393 renal
SF-268 CNS = system: SF-268 CNS
SF-295 CNS = system: SF-295 CNS
SF-539 CNS = system: SF-539 CNS
SK-MEL-2 melanoma = system: SK-MEL-2 melanoma
SK-MEL-28 melanoma = system: SK-MEL-28 melanoma
SK-MEL-5 melanoma = system: SK-MEL-5 melanoma
SN12C renal = system: SN12C renal
SNB-19 CNS = system: SNB-19 CNS
SNB-75 CNS = system: SNB-75 CNS
SR leukemia = system: SR leukemia
SW-620 colon = system: SW-620 colon
T-47D breast = system: T-47D breast
TK-10 renal = system: TK-10 renal
U251 CNS = system: U251 CNS
UACC-257 melanoma = system: UACC-257 melanoma
UACC-62 melanoma = system: UACC-62 melanoma
UO-31 renal = system: UO-31 renal
SK-OV-3 ovarian = system: SK-OV-3 ovarian

## O=c1oc2ccc(I)cc2c(=O)n1-c1ccc(Cl)cc1F
786-0 renal
  GI50: 3.14 µM
  TGI: 10.5 µM
A498 renal
  GI50: 141 nM
  TGI: 0.7 µM
A549 NSCLC
  GI50: 2.87 µM
  TGI: > 100 µM
ACHN renal
  GI50: 1.62 µM
  TGI: 12.8 µM
BT-549 breast
  GI50: 1030 nM
  TGI: 3.8 µM
CAKI-1 renal
  GI50: 1090 nM
  TGI: 5.61 µM
CCRF-CEM leukemia
  GI50: 2.97 µM
  TGI: 46.6 µM
COLO 205 colon
  GI50: 4.96 µM
  TGI: 19.9 µM
DU-145 prostate
  GI50: 2.28 µM
  TGI: 21.7 µM
EKVX NSCLC
  GI50: 1530 nM
  TGI: 8.77 µM
HCC-2998 colon
  GI50: 3.18 µM
  TGI: 12.9 µM
HCT-116 colon
  GI50: 1.21 µM
  TGI: 3.86 µM
HCT-15 colon
  GI50: 2.37 µM
  TGI: 12.6 µM
HL-60(TB) leukemia
  GI50: 1.37 µM
  TGI: 7.51 µM
HOP-62 NSCLC
  GI50: 2000 nM
  TGI: 7.42 µM
HOP-92 NSCLC
  GI50: 181 nM
  TGI: 0.726 µM
HS 578T breast
  GI50: 0.688 µM
  TGI: 8.66 µM
HT29 colon
  GI50: 3.4 µM
  TGI: 18.7 µM
IGROV1 ovarian
  GI50: 1190 nM
  TGI: 21.1 µM
K-562 leukemia
  GI50: 658 nM
  TGI: > 100 µM
KM12 colon
  GI50: 2.22 µM
  TGI: 5.39 µM
LOX IMVI melanoma
  GI50: 1330 nM
  TGI: 11.4 µM
M14 melanoma
  GI50: 598 nM
  TGI: 7.87 µM
MALME-3M melanoma
  GI50: 516 nM
  TGI: 3.49 µM
MCF7 breast
  GI50: 2.36 µM
  TGI: 36.5 µM
MDA-MB-231 breast
  GI50: 1270 nM
  TGI: 5.71 µM
MDA-MB-435
  GI50: 1900 nM
  TGI: 10.3 µM
MOLT-4 leukemia
  GI50: 2.24 µM
  TGI: 6.81 µM
NCI-H226 lung
  GI50: 1.96 µM
  TGI: 8.53 µM
NCI-H23 lung
  GI50: 1610 nM
  TGI: 7.68 µM
NCI-H460 lung
  GI50: 0.89 µM
  TGI: 13.1 µM
NCI-H522 lung
  GI50: 800 nM
  TGI: 9.72 µM
NCI/ADR-RES ovarian
  GI50: 1.87 µM
  TGI: 21.7 µM
OVCAR-3 ovarian
  GI50: 974 nM
  TGI: 12 µM
OVCAR-4 ovarian
  GI50: 1.68 µM
  TGI: 19 µM
OVCAR-5 ovarian
  GI50: 3.96 µM
  TGI: 74.1 µM
OVCAR-8 ovarian
  GI50: 1.66 µM
  TGI: 24.9 µM
PC-3 prostate
  GI50: 2 µM
  TGI: 7.11 µM
RPMI-8226 leukemia
  GI50: 758 nM
  TGI: 6.12 µM
RXF 393 renal
  GI50: 1.44 µM
  TGI: 5.32 µM
SF-268 CNS
  GI50: 1.51 µM
  TGI: 16.7 µM
SF-295 CNS
  GI50: 1800 nM
  TGI: 3.69 µM
SF-539 CNS
  GI50: 0.988 µM
  TGI: 6.71 µM
SK-MEL-2 melanoma
  GI50: 582 nM
  TGI: 3.43 µM
SK-MEL-28 melanoma
  GI50: 416 nM
  TGI: 2980 nM
SK-MEL-5 melanoma
  GI50: 0.751 µM
  TGI: 2190 nM
SN12C renal
  GI50: 0.8 µM
  TGI: 8.77 µM
SNB-19 CNS
  GI50: 640 nM
  TGI: 58.7 µM
SNB-75 CNS
  GI50: 0.5 µM
  TGI: 2970 nM
SR leukemia
  GI50: 1.13 µM
  TGI: > 100 µM
SW-620 colon
  GI50: 2020 nM
  TGI: 88.2 µM
T-47D breast
  GI50: 1260 nM
  TGI: 6.44 µM
TK-10 renal
  GI50: 4090 nM
  TGI: 16.9 µM
U251 CNS
  GI50: 1.51 µM
  TGI: 24.5 µM
UACC-257 melanoma
  GI50: 526 nM
  TGI: 6.45 µM
UACC-62 melanoma
  GI50: 419 nM
  TGI: 2280 nM
UO-31 renal
  GI50: 301 nM
  TGI: 3.24 µM

## CN(C)C(=O)O[C@H]1CN[C@H](C#Cc2cc3ncnc(Nc4ccc(OCc5cccc(F)c5)c(Cl)c4)c3s2)C1
786-0 renal
  GI50: 5.8 µM
  TGI: 15 µM
A498 renal
  GI50: 4190 nM
  TGI: 23.3 µM
A549 NSCLC
  GI50: 6.12 µM
  TGI: > 25 µM
ACHN renal
  GI50: 6.27 µM
  TGI: > 25 µM
BT-549 breast
  GI50: 4000 nM
  TGI: 10.2 µM
CAKI-1 renal
  GI50: 4060 nM
  TGI: > 25 µM
CCRF-CEM leukemia
  GI50: 3.17 µM
  TGI: > 25 µM
COLO 205 colon
  GI50: > 18.6 µM
  TGI: > 25 µM
DU-145 prostate
  GI50: 9.76 µM
  TGI: > 25 µM
EKVX NSCLC
  GI50: 1770 nM
  TGI: > 23 µM
HCC-2998 colon
  GI50: 11.3 µM
  TGI: > 25 µM
HCT-116 colon
  GI50: 12.1 µM
  TGI: > 25 µM
HCT-15 colon
  GI50: 14.2 µM
  TGI: > 25 µM
HL-60(TB) leukemia
  GI50: 5.22 µM
  TGI: 15 µM
HOP-62 NSCLC
  GI50: > 23400 nM
  TGI: > 25 µM
HOP-92 NSCLC
  GI50: 1770 nM
  TGI: 19.4 µM
HS 578T breast
  GI50: 10.4 µM
  TGI: > 25 µM
HT29 colon
  GI50: > 23 µM
  TGI: > 25 µM
IGROV1 ovarian
  GI50: 4610 nM
  TGI: > 25 µM
K-562 leukemia
  GI50: > 17100 nM
  TGI: > 25 µM
KM12 colon
  GI50: 7.37 µM
  TGI: > 25 µM
LOX IMVI melanoma
  GI50: > 23200 nM
  TGI: > 25 µM
M14 melanoma
  GI50: > 25000 nM
  TGI: > 25 µM
MALME-3M melanoma
  GI50: 5150 nM
  TGI: 14.5 µM
MCF7 breast
  GI50: 14.6 µM
  TGI: > 25 µM
MDA-MB-231 breast
  GI50: 4140 nM
  TGI: 11.6 µM
MDA-MB-435
  GI50: > 25000 nM
  TGI: > 25 µM
MOLT-4 leukemia
  GI50: 4.53 µM
  TGI: > 25 µM
NCI-H226 lung
  GI50: 5.49 µM
  TGI: 19.2 µM
NCI-H23 lung
  GI50: > 25000 nM
  TGI: > 25 µM
NCI-H460 lung
  GI50: 7.25 µM
  TGI: > 25 µM
NCI-H522 lung
  GI50: 977 nM
  TGI: > 12.7 µM
NCI/ADR-RES ovarian
  GI50: 9.82 µM
  TGI: > 25 µM
OVCAR-3 ovarian
  GI50: 4200 nM
  TGI: 16.3 µM
OVCAR-4 ovarian
  GI50: 20.4 µM
  TGI: > 25 µM
OVCAR-5 ovarian
  GI50: > 25 µM
  TGI: > 25 µM
OVCAR-8 ovarian
  GI50: 7.58 µM
  TGI: > 25 µM
PC-3 prostate
  GI50: 5.44 µM
  TGI: > 25 µM
RPMI-8226 leukemia
  GI50: 4630 nM
  TGI: 15.2 µM
RXF 393 renal
  GI50: 5.48 µM
  TGI: > 25 µM
SF-268 CNS
  GI50: 5.41 µM
  TGI: > 25 µM
SF-295 CNS
  GI50: > 20000 nM
  TGI: > 25 µM
SF-539 CNS
  GI50: 8.16 µM
  TGI: > 25 µM
SK-MEL-2 melanoma
  GI50: > 25000 nM
  TGI: > 25 µM
SK-MEL-28 melanoma
  GI50: > 25000 nM
  TGI: > 25000 nM
SK-MEL-5 melanoma
  GI50: 16 µM
  TGI: > 25000 nM
SK-OV-3 ovarian
  GI50: 102 nM
  TGI: > 25 µM
SN12C renal
  GI50: 5.64 µM
  TGI: > 25 µM
SNB-19 CNS
  GI50: > 19700 nM
  TGI: > 25 µM
SNB-75 CNS
  GI50: 9.66 µM
  TGI: > 25000 nM
SR leukemia
  GI50: 5.86 µM
  TGI: > 25 µM
SW-620 colon
  GI50: > 25000 nM
  TGI: > 25 µM
T-47D breast
  GI50: 2980 nM
  TGI: > 25 µM
TK-10 renal
  GI50: 765 nM
  TGI: > 17.4 µM
U251 CNS
  GI50: 14.7 µM
  TGI: > 25 µM
UACC-257 melanoma
  GI50: > 25000 nM
  TGI: > 25 µM
UACC-62 melanoma
  GI50: > 25000 nM
  TGI: > 25000 nM
UO-31 renal
  GI50: 4040 nM
  TGI: > 23.9 µM
